Data published in PubChem BioAssay AID623948 (Vanderbilt Specialized Chemistry Center, 2012).
Active and inactive are the calls of the source.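 Rule for the calls: active = compound shifting the acetylcholine potency curve by more than threefold; inactive = the rest.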

Biological target: Muscarinic acetylcholine receptor M4 (Homo sapiens) (UniProt P08173)
Assay: ACh curve leftward shift by hM4 PAMs, SAR follow-up, mechanism study, CHO cells, Gqi5 chimera, calcium mobilization (AID 623948)
Conditions: for % ACh max / outcome: ACh fold shift; for % ACh max: measured here: ACh max response with compound; for % ACh max / fold shift: at 30 µM, stronger effect = higher value

Sequence of Muscarinic acetylcholine receptor M4 (Homo sapiens) (P08173 whole entry, looked up): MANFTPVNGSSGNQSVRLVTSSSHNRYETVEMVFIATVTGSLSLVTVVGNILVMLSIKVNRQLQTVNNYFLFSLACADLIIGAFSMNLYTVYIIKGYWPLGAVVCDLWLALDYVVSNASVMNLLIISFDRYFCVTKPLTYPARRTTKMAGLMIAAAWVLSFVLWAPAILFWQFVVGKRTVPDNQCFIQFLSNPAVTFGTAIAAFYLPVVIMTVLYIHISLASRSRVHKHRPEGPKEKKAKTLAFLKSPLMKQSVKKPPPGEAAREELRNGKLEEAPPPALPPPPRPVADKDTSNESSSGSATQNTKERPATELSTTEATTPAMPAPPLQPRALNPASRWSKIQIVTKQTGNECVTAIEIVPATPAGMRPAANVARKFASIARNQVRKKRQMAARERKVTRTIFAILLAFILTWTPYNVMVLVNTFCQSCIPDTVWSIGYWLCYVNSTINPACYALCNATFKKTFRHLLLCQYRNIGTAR

SMILES | % ACh max [%] | fold shift | outcome
Cc1nc2sc(C(=O)NCc3ccncn3)c(N)c2c(C)c1Cl | – | – | active; potentiator
Cc1nc2sc(C(=O)NC3CCOCC3)c(N)c2c(C)c1Cl | – | – | active; potentiator
Cc1nc2sc(C(=O)NCc3ccc4c(c3)OCO4)c(N)c2c(C)c1Cl | – | – | active; potentiator
Cc1nc2sc(C(=O)NCc3nccs3)c(N)c2c(C)c1Cl | – | – | active; potentiator
Cc1nc2sc(C(=O)NCc3cccc(F)c3F)c(N)c2c(C)c1Cl | – | – | active; potentiator
Cc1nc2sc(C(=O)NC3CC3)c(N)c2c(C)c1Cl | – | – | active; potentiator
Cc1nc2sc(C(=O)NCc3cccnc3)c(N)c2c(C)c1Cl | – | – | active; potentiator
Cc1nc2sc(C(=O)NCc3ccccc3)c(N)c2c(C)c1Cl | – | – | active; potentiator

Now from value to compound:

% ACh max [%] | fold shift | outcome | SMILES
112 | 3.63 | – | COc1ccc(C)c2sc(NC(=O)c3ccco3)nc12
105 | 2.93 | – | COc1ccc(C)c2sc(NC(=O)c3cccnc3)nc12
110 | 3.65 | – | COc1ccc(C)c2sc(NC(=O)c3cnccn3)nc12
– | – | active; potentiator | Cc1nc2sc(C(=O)NCc3ccncc3)c(N)c2c(C)c1Cl
– | – | active; potentiator | Cc1nc2sc(C(=O)NCCc3ccncc3)c(N)c2c(C)c1Cl
106 | 5.98 | – | COc1ccc(C)c2sc(NC(=O)C3=COCCO3)nc12
110 | 14.9 | – | COc1ccc(C)c2sc(NC(=O)c3ccncc3)nc12
